Experimental findings from publication PMC12090182, “Repurposing of the RIPK1-Selective Benzo[1,4]oxazepin-4-one Scaffold for the Development of a Type III LIMK1/2 Inhibitor” (ACS Chemical Biology, 2025) are described below.

pEC50: −log10 of the molar value. Several values for one entry are separate records, joined by “and”; a condition that tells them apart may be missing. Identical values can stand only once.

Format in all cases: cell-based
In one series the target is LIMK2 (Homo sapiens, UniProt P53671). The series is described as follows: NanoBRET cellular target engagement. Particulars: LIMK2, HEK293T cells. Details: full-length LIMK1/2, RIPK1, BTK, and LRRK2 cloned in a frame in a NanoLuc-vector (Promega); host or cells: HEK293T. The protocol:
(§1) The assay was performed as described previously.[31],[32] In brief, full-length LIMK1/2, RIPK1, BTK, and LRRK2 cloned in a frame in a NanoLuc-vector (Promega) were transfected into HEK293T cells (ATCC CRL-1573) using FuGENE HD (Promega, E2312), and proteins were allowed to express for 20 h. The serially diluted inhibitor and NanoBRET Kinase Tracer (Promega) used at the previously determined Tracer KD,app (Table S1) were pipetted into white 384-well plates (Greiner 781 207) using an ECHO 550 acoustic dispenser (Labcyte). The corresponding transfected cells were added and reseeded at a density of 2 × 10^5 cells/mL after trypsinization and resuspension in Opti-MEM without phenol red (Life Technologies). The system was allowed to equilibrate for 2 h at 37 °C and 5% CO2 prior to BRET measurements. To measure BRET, a NanoBRET Nano-Glo substrate and an extracellular NanoLuc inhibitor (Promega, N2160) were added as per the manufacturer's protocol, and filtered luminescence was measured on a PHERAstar plate reader (BMG Labtech) equipped with a luminescence filter pair (a 450 nm BP filter (donor) and a 610 nm LP filter (acceptor)). Competitive displacement data were then plotted using GraphPad Prism 10 software using a normalized three-parameter curve fit with the following equation: Y = 100/( [drawing 1] ).
In general terms: Bioluminescence resonance energy transfer reports proximity on the nanometre scale.

For another series, the target named is LIMK1 (Homo sapiens, UniProt P53667). The experiment in a line: NanoBRET cellular target engagement. Details: purchased Carna Biosciences. Particulars: LIMK1, HEK293T cells. The protocol: as §1
Sequence of LIMK1 (P53667 whole entry): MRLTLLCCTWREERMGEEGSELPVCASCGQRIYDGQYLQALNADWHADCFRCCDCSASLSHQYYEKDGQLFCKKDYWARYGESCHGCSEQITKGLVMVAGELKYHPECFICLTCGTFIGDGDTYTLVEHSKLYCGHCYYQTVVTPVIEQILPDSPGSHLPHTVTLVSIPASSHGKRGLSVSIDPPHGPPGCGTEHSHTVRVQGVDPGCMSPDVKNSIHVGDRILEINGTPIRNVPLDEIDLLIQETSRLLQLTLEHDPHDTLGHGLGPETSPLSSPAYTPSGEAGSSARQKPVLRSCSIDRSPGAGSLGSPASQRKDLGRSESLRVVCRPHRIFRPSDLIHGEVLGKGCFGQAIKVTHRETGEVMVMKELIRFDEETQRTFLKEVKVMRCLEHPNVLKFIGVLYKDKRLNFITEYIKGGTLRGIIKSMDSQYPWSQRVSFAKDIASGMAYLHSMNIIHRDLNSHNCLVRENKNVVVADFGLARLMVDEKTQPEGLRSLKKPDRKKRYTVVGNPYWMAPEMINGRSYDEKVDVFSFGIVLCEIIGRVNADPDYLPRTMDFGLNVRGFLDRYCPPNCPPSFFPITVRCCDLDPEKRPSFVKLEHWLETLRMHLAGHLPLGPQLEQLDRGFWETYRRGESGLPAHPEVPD
The next series has as its system HEK293T cells. Particulars: HEK293T, 10 µM. The protocol: (§2) To assess the influence on cell health, a high-content screening in living cells called the multiplex high-content assay, as described previously by Tjaden et al., was performed.[38] In brief, HEK293T (ATCC CRL-1573) and U2OS (ATCCHTB-96) were cultured in DMEM plus L-glutamine (high glucose) supplemented by 10% FBS (Gibco) and penicillin/streptomycin (Gibco). MRC-9 fibroblasts ([…]) were cultured in EMEM plus L-glutamine supplemented by 10% FBS (Gibco) and penicillin/streptomycin (Gibco). Cells were seeded at a density of 1250 cells per well in a 384-well plate in a culture medium (cell culture microplate, PS, f-bottom, μClear, 781091, Greiner), with a volume of 50 μL per well. All outer wells were filled with 100 μL of PBS buffer (Gibco). […] The cell shape and fluorescence were measured before treatment and 12, 24, and 48 h after compound treatment using the CQ1 high-content confocal microscope (Yokogawa, Musashino, Japan). […] The compounds were tested at 1 and 10 μM, respectively. Acquired images of the cells were processed using Yokogawa CellPathfinder software (v3.04.02.02). […] Results were normalized to cells exposed to 0.1% DMSO. All compounds were tested in biological duplicates, and SEM (standard error of mean) was calculated of biological duplicates.

Another series has as its system U2OS cells. The settings on record: U2OS; 10 µM; 0 h after treatment. How it is done:
as §2

The subject of another series is MRC-9 cells. The experiment in a line: Multiplex high-content viability assessment. Particulars: human fibroblast, 10 µM. How it is done:
as §2

Sequence of LIMK2 (P53671 whole entry): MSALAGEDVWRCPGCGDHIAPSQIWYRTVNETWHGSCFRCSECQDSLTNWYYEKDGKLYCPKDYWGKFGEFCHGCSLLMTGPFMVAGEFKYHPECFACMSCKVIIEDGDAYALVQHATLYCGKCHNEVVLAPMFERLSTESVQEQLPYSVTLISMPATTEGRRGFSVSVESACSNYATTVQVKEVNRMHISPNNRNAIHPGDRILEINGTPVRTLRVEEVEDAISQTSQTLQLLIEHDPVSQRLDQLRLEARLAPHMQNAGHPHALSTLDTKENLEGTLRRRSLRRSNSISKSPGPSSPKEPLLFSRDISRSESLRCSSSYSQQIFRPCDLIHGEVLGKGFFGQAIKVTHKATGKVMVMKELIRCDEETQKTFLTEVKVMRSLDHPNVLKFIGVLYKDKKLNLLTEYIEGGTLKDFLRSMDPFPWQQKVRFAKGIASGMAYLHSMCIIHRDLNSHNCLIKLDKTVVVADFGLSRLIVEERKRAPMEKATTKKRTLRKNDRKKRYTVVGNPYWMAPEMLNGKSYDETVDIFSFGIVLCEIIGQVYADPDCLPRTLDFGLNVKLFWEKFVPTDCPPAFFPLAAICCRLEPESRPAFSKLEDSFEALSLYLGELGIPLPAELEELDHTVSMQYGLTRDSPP

Regarding `CN1C(=O)[C@@H](N2CCc3cn(Cc4ccccc4)nc3C2=O)COc2ccccc21` [TP-030-1], the values for the pEC50 at LIMK2 and on LIMK1 were 4.42 and 4.38, respectively.
In the case of `CN[C@@H]1C[C@H]2O[C@@](C)([C@@H]1OC)n1c3ccccc3c3c4c(c5c6ccccc6n2c5c31)C(=O)NC4` [staurosporine], the “Population with membrane disruption (%)” value with HEK293T cells (0 h after treatment) amounted to 0.00%. The “Population Healthy Nuclei (%)” value with HEK293T cells (12 h after treatment) was 64.72% and 69.22% and 71.09%; in the series on MRC-9 cells (0 h after treatment) it was 63.64% and 62.50% and 53.61% and 54.10%; with MRC-9 cells (12 h after treatment), 32.43% and 29.76% and 33.41% and 38.90%; in the series with MRC-9 cells (24 h after treatment), 37.01% and 35.97% and 41.62% and 36.60%; in the series on MRC-9 cells (48 h after treatment), 39.48% and 36.86% and 44.48% and 39.35%. For the same molecule, the “Population cell that influence microtubule strucutre (%)” value in the series with HEK293T cells (12 h after treatment) is 37.22% and 35.67%. In addition, the “Population apoptotic cell (%)” value was 60.00% and 75.00% and 76.47% in the series on HEK293T cells (48 h after treatment); 48.72% and 46.51% and 42.50% and 50.00% with MRC-9 cells (12 h after treatment). The “Population with increased mitochondrial mass (%)” value in the series on U2OS cells was 2.11% and 3.70% and 5.56%. Besides, the “Population Fragmented Nuclei (%)” value in the series with MRC-9 cells (12 h after treatment) is 57.03% and 59.76% and 57.04% and 49.59%; in the series on MRC-9 cells (24 h after treatment) it was 56.12% and 54.77% and 50.00% and 53.32%; with MRC-9 cells (48 h after treatment) it was 53.07% and 56.00% and 48.62% and 54.18%.
